Experimental data from patent US20160102317A1, “PLANTS HAVING INCREASED TOLERANCE TO HERBICIDES” (BASF SE, priority 2013, published 2016).

Legend:
Type in all cases: biochemical
[1] = biological target: T1, Hordeum HPPD (SEQ ID: 2) F377L (Hordeum vulgare, UniProt O48604, A164G/F377L/R146V/R147D/R148G); experiment: HPPD activity assay, in vitro characterization of HPPD mutants; settings: Table 16, Hordeum wild-type = 1
T1 construct: His (N); made in house; host or cells: E. coli BL21 (DE3)
Experimental: (§1) HPPD produces homogentisic acid and CO2 from 4-hydroxyphenylpyruvate (4-HPP) and 02. The activity assay for HPPD is based on the analysis of homogentisic acid by reversed phase HPLC. The assay mixture can contain 150 mM potassium phosphate buffer pH 7.0, 50 mM L-ascorbic acid, 100 μM Catalase (Sigma-Aldrich), 1 μM FeSO4 and 0.2 units of purified HPPD enzyme in a total volume of 505 μl. 1 unit is defined as the amount of enzyme that is required to produce 1 nmol of HGA per minute at 20° C.
After a preincubation of 30 min the reaction is started by adding 4-HPP to a final concentration of 0.05 mM. The reaction is allowed to proceed for 45 min at room temperature. The reaction is stopped by the addition of 50 μl of 4.5 M phosphoric acid. […]
(§2) 5 μl of the cleared sample is analyzed on an UPLC HSS T3 column (particle size 1.8 μm, dimensions 2.1×50 mm; Waters) by isocratic elution using 90% 20 mM NaH2PO4 pH 2.2, 10% methanol (v/v).
(§3) HGA is detected electrochemically at 750 mV (mode: DC; polarity: positive) and quantified by integrating peak areas (Empower software; Waters).
Inhibitors are dissolved in DMSO (dimethylsulfoxide) to a concentration of 0.5 mM. […] IC50 values are calculated using non-linear regression.
Purified, mutant HPPD enzymes are obtained by the methods described above. […] Weighted means (by standard error) of Km and IC50 values are calculated from at least three independent experiments. […]

[2] = biological target: T2, Arabidopsis HPPD (SEQ ID NO:53), wild-type (Arabidopsis thaliana, UniProt P93836); experiment: HPPD activity assay (HGA by HPLC), wild-type enzyme characterization
T2 construct: His6 (N); made in house; host or cells: E. coli BL21 (DE3)
T2 sequence (P93836 1-445): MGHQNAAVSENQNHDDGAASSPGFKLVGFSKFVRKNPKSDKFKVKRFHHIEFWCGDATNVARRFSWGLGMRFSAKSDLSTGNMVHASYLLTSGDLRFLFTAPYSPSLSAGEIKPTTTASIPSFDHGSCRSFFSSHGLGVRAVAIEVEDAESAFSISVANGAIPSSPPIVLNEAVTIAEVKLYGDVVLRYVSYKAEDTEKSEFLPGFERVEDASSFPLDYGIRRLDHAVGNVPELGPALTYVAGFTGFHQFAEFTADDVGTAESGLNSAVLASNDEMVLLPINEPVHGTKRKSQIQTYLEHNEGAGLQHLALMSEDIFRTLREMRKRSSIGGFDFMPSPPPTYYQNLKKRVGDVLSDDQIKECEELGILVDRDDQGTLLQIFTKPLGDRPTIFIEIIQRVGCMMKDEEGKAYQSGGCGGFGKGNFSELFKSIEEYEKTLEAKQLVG
Experimental: as §1
(§4) After a preincubation of 30 min the reaction is started by adding 4-HPP to a final concentration of 0.05 mM. The reaction is allowed to proceed for 45 min at room temperature. The reaction is stopped by the addition of 50 μl of 4.5 M phosphoric acid. The sample is filtered using a […] pore size PVDF filtration device.
as §2, §3
(§5) Inhibitors are dissolved in DMSO (dimethylsulfoxide) to a concentration of 0.5 mM. From this stock solution serial five-fold dilutions are prepared in DMSO, which are used in the assay. The respective inhibitor solution accounts for 1% of the assay volume. […] Activities are normalized by setting the uninhibited enzyme activity to 100%. IC50 values are calculated using non-linear regression.
Using methods which are described in the above examples or well known in the art, purified, recombinant wild-type HPPD enzymes are characterized with respect to their kinetic properties and sensitivity towards HPPD inhibiting herbicides. Apparent michaelis constants (Km) and maximal reaction velocities (Vmax) are calculated by non-linear regression with the software GraphPad Prism 5 (GraphPad Software, La Jolla, USA) using a substrate inhibition model. […] Weighted means (by standard error) of Km and IC50 values are calculated from at least three independent experiments.
Field performance of the HPPD enzyme, which is used as a herbicide tolerance trait, may depend not only on its lack of sensitivity towards HPPD inhibiting herbicides but also on its activity. To assess the potential performance of a herbicide tolerance trait a tolerance index (TI) is calculated using the following formula: […]
(§6) Easy comparison and ranking of each trait is enabled by normalizing tolerance indexes on Arabidopsis wild-type HPPD.

[3] = biological target: T3, Hordeum HPPD (SEQ ID: 2) G407C (Hordeum vulgare, UniProt O48604, A164G/G407C/R146V/R147D/R148G); experiment: HPPD activity assay, in vitro characterization of HPPD mutants; settings: Table 16, Hordeum wild-type = 1
T3 construct: His (N); made in house; host or cells: E. coli BL21 (DE3)
T3 sequence (O48604 whole entry R146V/R147D/R148G/A164G/G407C): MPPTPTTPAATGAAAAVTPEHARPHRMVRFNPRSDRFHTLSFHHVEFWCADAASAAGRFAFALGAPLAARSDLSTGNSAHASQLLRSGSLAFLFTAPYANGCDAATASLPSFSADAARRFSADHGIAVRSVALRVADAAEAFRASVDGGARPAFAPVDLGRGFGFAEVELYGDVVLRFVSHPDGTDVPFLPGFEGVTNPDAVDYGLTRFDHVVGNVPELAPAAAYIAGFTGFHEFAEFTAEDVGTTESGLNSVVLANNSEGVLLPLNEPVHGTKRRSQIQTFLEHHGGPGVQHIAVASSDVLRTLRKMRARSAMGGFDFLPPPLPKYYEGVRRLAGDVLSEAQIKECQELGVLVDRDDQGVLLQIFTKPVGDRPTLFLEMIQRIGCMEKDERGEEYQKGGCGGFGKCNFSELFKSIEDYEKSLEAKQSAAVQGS
Experimental: as §1, §4, §2, §3, §5
(§7) Purified, mutant HPPD enzymes are obtained by the methods described above. Dose response and kinetic measurements are carried out using the described HPPD activity assay. Apparent michaelis constants (Km) and maximal reaction velocities (Vmax) are calculated by non-linear regression with the software GraphPad Prism 5 (Graph Pad Software, La Jolla, USA) using a substrate inhibition model. […] Weighted means (by standard error) of Km and IC50 values are calculated from at least three independent experiments.
(§8) Field performance of the optimized HPPD enzyme, which is used as a herbicide tolerance trait may depend not only on its lack of sensitivity towards HPPD inhibiting herbicides but also on its activity. To assess the potential performance of a herbicide tolerance trait a tolerance index (TI) is calculated using the following formula: […]
as §6

[4] = biological target: T4, Arabidopsis HPPD (SEQ ID: 53) M335H, P336A, E363Q (Arabidopsis thaliana, UniProt P93836, E363Q/M335H/P336A); experiment: as above; settings: Table 15, Arabidopsis HPPD variant M335H, wild-type = 1
T4 construct: PCR-based site directed mutagenesis of pEXP5-NT/TOPO®-AtHPPD is done; His6 (N); made in house; host or cells: E. coli BL21 (DE3)
T4 sequence (P93836 whole entry M335H/P336A/E363Q): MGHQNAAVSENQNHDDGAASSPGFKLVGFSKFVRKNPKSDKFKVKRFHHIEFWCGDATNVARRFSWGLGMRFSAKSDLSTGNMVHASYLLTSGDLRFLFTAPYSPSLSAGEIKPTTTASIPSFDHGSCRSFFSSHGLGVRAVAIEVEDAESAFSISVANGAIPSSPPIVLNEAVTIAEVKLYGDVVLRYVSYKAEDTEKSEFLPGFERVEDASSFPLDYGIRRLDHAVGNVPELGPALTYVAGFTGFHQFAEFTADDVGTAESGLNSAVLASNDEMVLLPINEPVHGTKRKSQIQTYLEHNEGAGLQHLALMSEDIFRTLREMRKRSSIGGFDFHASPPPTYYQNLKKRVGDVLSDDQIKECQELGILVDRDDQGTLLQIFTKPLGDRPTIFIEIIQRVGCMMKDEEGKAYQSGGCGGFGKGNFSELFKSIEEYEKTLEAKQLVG
Experimental: as §1, §4, §2, §3, §5, §7, §8, §6

[5] = biological target: T5, Hordeum HPPD (SEQ ID: 2) L353M, P321R, V212I (Hordeum vulgare, UniProt O48604, L353M/P321R/V212I); experiment: as above; settings: Table 16, Hordeum wild-type = 1
T5 construct: His (N); made in house; host or cells: E. coli BL21 (DE3)
T5 sequence (O48604 whole entry R146V/R147D/R148G/A164G/V212I/P321R/L353M): as the sequence (O48604 whole entry R146V/R147D/R148G/A164G/G407C) above, with V212I, P321R, L353M, C407G counted along it
Experimental: as §1, §4, §2, §3, §5, §7, §8, §6

T1 sequence (O48604 whole entry R146V/R147D/R148G/A164G/F377L): as the sequence (O48604 whole entry R146V/R147D/R148G/A164G/G407C) above, with F377L, C407G counted along it

| SMILES | TI Inhibitor 2 (normalized tolerance index) [1] | Ki [2] [nM] | TI Inhibitor 1 (normalized tolerance index) ([2]; Table 12, Arabidopsis HPPD, normalized to reference SEQ ID NO:53) | TI Inhibitor 1 (normalized tolerance index) ([2]; Table 15, Arabidopsis HPPD variant Wild-type) | TI Inhibitor 1 (normalized tolerance index) [3] | TI Inhibitor 1 (normalized tolerance index) [4] | TI Inhibitor 1 (normalized tolerance index) [5] |
| --- | --- | --- | --- | --- | --- | --- | --- |
| Cc1c(C(=O)Nc2nnnn2C)ccc2c1C(=O)C(C)(C)CS2(=O)=O [Inhibitor 2, 3,3,5-trimethyl-N-(1-methyltetrazol-5-yl)-1,1,4-trioxo-2H-thiochromene-6-carboxamide] | 4.6 |  |  |  |  |  |  |
| COc1no[nH]/c1=N/C(=O)c1ccc2c(c1Cl)S(=O)(=O)CCC2(C)C [Inhibitor 1, (NE)-8-chloro-N-(4-methoxy-1,2,5-oxadiazol-3-ylidene)-4,4-dimethyl-1,1-dioxo-2,3-dihydrothiochromene-7-carboxamide] |  | 19 | 1 | 1 | 3.3 | 0.3 | 2.9 |
